26 molecules from patent US9777015B2, “Useful thiophene derivatives in the treatment of diabetes” (METABRAIN RESEARCH, priority 2012, dated 2017) can be followed below.

Counter-ions that a name gives are not always drawn.

The subject of one assay is INS-1 cells. Put plainly: Stimulation test of insulin secretion by INS-1 cells. Format: cell-based. Particulars: Rattus norvegicus, 1 h incubation, 3.5 mM glucose; for activity at 10 µM: INS1, compound at 10 μM, read-out: INS-1 % of ctrl @ 10 μM; for activity at 50 µM: INS1, compound at 50 μM, read-out: INS-1 % of ctrl @ 50 μM. As for the experimental part:
The different compounds were tested on an INS-1 beta-pancreatic line in order to evaluate their capability of potentializing the insulin secretion in response to glucose. Very briefly, the cells are cultivated in a culture medium, RPMI 1640 with 10 mM glucose containing 1 mM of sodium pyruvate, 50 μM of 2-mercaptoethanol, 2 mM of glutamine, 10 mM of HEPES, 100 IU/mL of penicillin, 100 μg/mL of streptomycin and 10% of inactivated fetal calf serum, as described by Asfari et al.. For the insulin secretion test, the INS-1 cells are sown and cultivated in 96-well plates. After 3 days of cultivation at 37° C. in a humid atmosphere (95% air/5% CO2), the medium is removed and the cells are incubated for 16 h in a medium containing 5 mM of glucose and 1% of inactivated fetal calf serum. On the day of the test, the cells are washed with a Krebs buffer (pH 7.4) containing 0.1% of bovine albumin and then pre-incubated for 30 min at 37° C. in this same buffer containing 2.8 mM of glucose. Finally, the cells are again washed with Krebs buffer and then incubated for 1 h in the buffer of the secretion test (Krebs, pH 7.4 containing 0.1% of bovine albumin and 3.5 mM of glucose and molecules to be evaluated). At the end of the test, the cell supernatant is recovered in order to measure therein the secreted insulin, by means of an ELISA kit using a rat anti-insulin antibody (ELISA Alpco Cat no. 80-INSRTH-E10). Each condition is tested in triplicate. The 3.5 mM glucose, the 10^−7M GLP-1 and the Forskoline 10^−7/IBMX 10^−5M mixtures are used as positive controls of the test. A compound stimulates the secretion of insulin if this factor is greater than or equal to 130% of the control for a given glucose dose.

Assay [1] concerns hepatocytes isolated from Wistar rat liver. Put plainly: Test of inhibition of hepatic production of glucose (isolated hepatocytes, 3 h or 20 h incubation). Format: cell-based. Particulars: 3 h incubation; for activity at 50 µM / activity at 100 µM: Rattus norvegicus, Hepatocyte, 3 h; for activity at 50 µM: read-out: HGP % of ctrl @ 50 μM; for activity at 100 µM: read-out: HGP % of ctrl @ 100 μM. As for the experimental part: The hepatocytes are isolated from Wistar rat liver having fasted for 24 h after perfusion of collagenase in the portal vein. The freshly isolated hepatocytes are sown in 6-well plates coated with collagen and containing an adhesion medium (Williams Medium). After adhesion, the medium is replaced with RPMI 1640 medium without any glucose, containing hydrocortisone (7.10^−5M) for a duration from 16 to 18 h. The next day, the glucose hepatic production test is conducted in a Krebs medium for 3 h. The basal conditions are cells incubated with only Krebs, the stimulated conditions are the cells placed in Krebs+lactate+pyruvate, the produced conditions are the cells exposed to chemical compounds in a Krebs/lactate/pyruvate medium. In the case when the compounds are dissolved in DMSO, all the conditions of the tests are met in the presence of a final concentration of 0.1% DMSO. The positive control of the test is the mercaptopicolinate known for its inhibitory action on hepatic production of glucose via the phosphoenolpyruvate carboxykinase. For short term treatments, the compounds are incubated for 3 h. For long term treatments, the compounds are incubated for 20 h at the moment when the hepatocytes are cultivated in RPMI and then added during the hepatic production test for 3 h. At the end of the 3 hours of incubation, the supernatant is recovered for measurement of glucose with a colorimetric method using glucose oxidase. The cells are lysed with a 0.1% NaOH aqueous solution in order to measure the amount of protein with the Lowry method. The results are expressed in mmols of glucose per mg of protein.

Where [2] appears, read: hepatic glucose production, rat hepatocytes, compound at 50 μM.
The mark [3] stands for this setting: hepatic glucose production, rat hepatocytes, compound at 100 μM.

`CCOC(=O)Cc1cc(C(=O)c2cscn2)sc1-c1ccc(OC)cc1` [compound 33, ethyl 2-(2-(4-methoxyphenyl)-5-(thiazole-4-carbonyl)thiophen-3-yl)acetate]: in the assay on INS-1 cells, the activity at 10 µM turned out to be 199% and the activity at 50 µM is 280%.
The corresponding values for `CC(C)OC(=O)Cc1cc(C(=O)c2ccco2)sc1-c1ccc(Cl)c(Cl)c1` [compound 39, isopropyl 2-(2-(3,4-dichlorophenyl)-5-(furan-2-carbonyl)thiophen-3-yl)acetate] are 143% and 389%.
The corresponding values for `N#Cc1ccc(-c2sc(C(=O)c3ccco3)cc2CC(=O)O)cc1` [compound 140, 2-(2-(4-cyanophenyl)-5-(furan-2-carbonyl)thiophen-3-yl)acetic acid] are 123% and 188%.
Take `CCOC(=O)Cc1cc(C(=O)c2ccco2)sc1-c1ccc(C#N)cc1` [compound 139, ethyl 2-(2-(4-cyanophenyl)-5-(furan-2-carbonyl)thiophen-3-yl)acetate]: in the assay on INS-1 cells, the activity at 10 µM was found to be 183% and the activity at 50 µM was determined as 247%.
The corresponding values for `CN(C)CCNC(=O)Cc1cc(C(=O)c2ccco2)sc1-c1cccc(C#N)c1` [compound 142, 2-(2-(3-cyanophenyl)-5-(furan-2-carbonyl)thiophen-3-yl)-N-(2-(dimethylamino)ethyl)acetamide] are 117% and 175%.
For `COc1ccc(C(=O)c2cc(CC(=O)NCCN(C)C)c(-c3ccc(Cl)cc3)s2)cc1` [compound 89, 2-(2-(4-chlorophenyl)-5-(4-methoxybenzoyl)thiophen-3-yl)-N-(2-(dimethylamino)ethyl)acetamide], the activity at 10 µM in the assay on INS-1 cells came out at 171%.
With `COCC(C(=O)OC(C)C)c1cc(C(=O)c2ccc(OC)cc2)sc1-c1ccc(Cl)cc1` (centres unmarked) [compound 125], in the assay on INS-1 cells, the activity at 10 µM was 154% and the activity at 50 µM worked out at 126%.
With `CCOC(=O)Cc1cc(C(=O)N2CCOCC2)sc1-c1ccc(Cl)cc1` [compound 114, ethyl 2-(2-(4-chlorophenyl)-5-(morpholine-4-carbonyl)thiophen-3-yl)acetate], the activity at 10 µM in the assay on INS-1 cells was found to be 150%.
As to `C=C(C(=O)OCC)c1cc(C(=O)c2ccc(OC)cc2)sc1-c1ccc(Cl)cc1` [compound 187, ethyl 2-(2-(4-chlorophenyl)-5-(4-methoxybenzoyl)thiophen-3-yl)acrylate], in the assay on INS-1 cells, the activity at 10 µM is 152% and the activity at 50 µM is 120%.
On to `CCOC(=O)Cc1cc(C(=O)c2ccoc2)sc1-c1ccc(OC)cc1` [compound 28, ethyl 2-(5-(furan-3-carbonyl)-2-(4-methoxyphenyl)thiophen-3-yl)acetate], for which, in the assay on INS-1 cells, the activity at 10 µM was 136% and the activity at 50 µM is 138%.
For `COc1ccc(C(=O)c2cc(CC(=O)NCCO)c(-c3ccc(Cl)cc3)s2)cc1` [compound 96, 2-(2-(4-chlorophenyl)-5-(4-methoxybenzoyl)thiophen-3-yl)-N-(2-hydroxyethyl)acetamide], the activity at 10 µM in the assay with INS-1 cells was 177%.
For the molecule `O=C(c1ccco1)c1cc(CC(=O)N2CCOCC2)c(-c2ccc(Cl)cc2)s1` [compound 91, 2-(2-(4-chlorophenyl)-5-(furan-2-carbonyl)thiophen-3-yl)-1-morpholino ethanone], in the assay on INS-1 cells, the activity at 10 µM turned out to be 184% and the activity at 50 µM came to 152%.
As to `N=C(N)NC(=O)Cc1cc(C(=O)c2ccco2)sc1-c1ccc(Cl)cc1` [compound 186, N-carbamimidoyl-2-[2-(4-chlorophenyl)-5-(furan-2-carbonyl)-3-thienyl]acetamide hydrochloride], the activity at 50 µM in assay [1] (setting [2]) worked out at 69%. The activity at 100 µM in assay [1] (setting [3]) worked out at 60%.
On to `CCOC(=O)Cc1cc(C(=O)NNC(=O)c2ccncc2)sc1-c1ccc(Cl)cc1` [compound 179, ethyl 2-[2-(4-chlorophenyl)-5-[(pyridine-4-carbonyl-amino)-carbamoyl]-3-thienyl]acetate], for which, in assay [1] (setting [2]), the activity at 50 µM amounted to 91%. Further, the activity at 100 µM in assay [1] (setting [3]) turned out to be 69%.
`O=C([O-])Cc1cc(C(=O)c2ccco2)sc1-c1ccc(Cl)cc1.[Na+]` [compound 82, sodium 2-(2-(4-chlorophenyl)-5-(furan-2-carbonyl)thiophen-3-yl)acetate]: in assay [1] (setting [2]), the “HGP % of ctrl @ 50 μM” value is listed as 67 % of ctrl. Further, the “HGP % of ctrl @ 100 μM” value in assay [1] (setting [3]) is reported as 26 % of ctrl.
As for `COc1ccc(C(=O)c2cc(CC(=O)NCCN(C)C)c(-c3ccc(Cl)c(Cl)c3)s2)cc1` [compound 166, 2-[2-(3,4-dichlorophenyl)-5-(4-methoxybenzoyl)-3-thienyl]-N-(2-dimethylaminoethyl)acetamide], the activity at 50 µM in assay [1] (setting [2]) is 71%. Besides, the activity at 100 µM in assay [1] (setting [3]) was 65%.
The corresponding values for `COc1ccc(C(=O)c2cc(CC(=O)O)c(-c3ccc(OC)cc3)s2)cc1` [compound 45, 2-(5-(4-methoxybenzoyl)-2-(4-methoxyphenyl)thiophen-3-yl)acetic acid] are 82% and 73%.
On to `COC(=O)Cc1cc(C(=O)c2cccc(OC)c2)sc1-c1ccccc1` [compound 4, methyl 2-(5-(3-methoxybenzoyl)-2-phenylthiophen-3-yl)acetate], for which the activity at 50 µM in assay [1] (setting [2]) stood at 77%. Moreover, the activity at 100 µM in assay [1] (setting [3]) was 75%.
Take `COc1ccc(C(=O)c2cc(CC(=O)NC(=N)N)c(-c3ccc(Cl)c(Cl)c3)s2)cc1` [compound 184, N-carbamimidoyl-2-[2-(3,4-dichlorophenyl)-5-(4-methoxybenzoyl)-3-thienyl]acetamide hydrochloride]: the activity at 50 µM in assay [1] (setting [2]) amounted to 68%. Further, in assay [1] (setting [3]), the activity at 100 µM was found to be 80%.
The corresponding values for `CCOC(=O)Cc1cc(C(=O)CCc2ccccc2)sc1-c1ccc(OC)cc1` [compound 38, ethyl 2-(2-(4-methoxyphenyl)-5-(3-phenylpropanoyl)thiophen-3-yl)acetate] are 74% and 70%.
Consider `COc1ccc(C(=O)c2cc(C(C)C(=O)O)c(-c3ccc(Cl)cc3)s2)cc1` (centres unmarked) [compound 127, 2-(2-(4-chlorophenyl)-5-(4-methoxybenzoyl)thiophen-3-yl)propanoic acid], for which the “inhibition of hepatic production of glucose” value in assay [1] (with two doses) is listed as “strongest inhibitions”. Also, the activity at 50 µM in assay [1] (setting [2]) is 54%. Further, the activity at 100 µM in assay [1] (setting [3]) worked out at 23%.
On to `COC(=O)Cc1cc(C(=O)c2ccccc2)sc1-c1ccccc1` [compound 7, methyl 2-(5-benzoyl-2-phenyl-thiophen-3-yl)acetate], for which the activity at 50 µM in assay [1] (setting [2]) stood at 84%. Moreover, the activity at 100 µM in assay [1] (setting [3]) turned out to be 70%.
Taken in the same sequence, the figures for `O=C(O)Cc1cc(C(=O)c2ccc(Cl)c(Cl)c2)sc1-c1ccc(Cl)cc1` [compound 57, 2-(2-(4-chlorophenyl)-5-(3,4-dichlorobenzoyl)thiophen-3-yl)acetic acid] were 77% and 51%.
The corresponding values for `COc1ccc(-c2sc(C(=O)CCc3ccccc3)cc2CC(=O)O)cc1` [compound 80, 2-(2-(4-methoxyphenyl)-5-(3-phenylpropanoyl)thiophen-3-yl)ace acetic acid] are 83% and 67%.
The corresponding values for `COc1ccc(-c2sc(C(=O)c3ccccc3OC)cc2CC(=O)O)cc1` [compound 69, 2-(5-(2-methoxybenzoyl)-2-(4-methoxyphenyl)thiophen-3-yl)acetic acid] are 86% and 60%.
Take `COc1ccc(C(=O)c2cc(CC(=O)O)c(-c3ccc(Cl)c(Cl)c3)s2)cc1` [compound 81, 2-(2-(3,4-dichlorophenyl)-5-(4-methoxybenzoyl)thiophen-3-yl) acetic acid]: the activity at 50 µM in assay [1] (setting [2]) worked out at 106%. For the same molecule, the activity at 100 µM in assay [1] (setting [3]) was found to be 54%.
